Assay results from patent publication US20210253518A1, “KINASE INHIBITOR” (NISSAN CHEMICAL CORPORATION, priority 2018, published 2021).

Key:
[1] = molecular target: T1, LATS1 (Homo sapiens, UniProt O95835); experiment: Kinase Assay method (Fluorospark Kinase/ADP Multi-Assay Kit); format: biochemical
T1 construct: purchased Carna Biosciences
T1 sequence (O95835 589-1130 limits assumed): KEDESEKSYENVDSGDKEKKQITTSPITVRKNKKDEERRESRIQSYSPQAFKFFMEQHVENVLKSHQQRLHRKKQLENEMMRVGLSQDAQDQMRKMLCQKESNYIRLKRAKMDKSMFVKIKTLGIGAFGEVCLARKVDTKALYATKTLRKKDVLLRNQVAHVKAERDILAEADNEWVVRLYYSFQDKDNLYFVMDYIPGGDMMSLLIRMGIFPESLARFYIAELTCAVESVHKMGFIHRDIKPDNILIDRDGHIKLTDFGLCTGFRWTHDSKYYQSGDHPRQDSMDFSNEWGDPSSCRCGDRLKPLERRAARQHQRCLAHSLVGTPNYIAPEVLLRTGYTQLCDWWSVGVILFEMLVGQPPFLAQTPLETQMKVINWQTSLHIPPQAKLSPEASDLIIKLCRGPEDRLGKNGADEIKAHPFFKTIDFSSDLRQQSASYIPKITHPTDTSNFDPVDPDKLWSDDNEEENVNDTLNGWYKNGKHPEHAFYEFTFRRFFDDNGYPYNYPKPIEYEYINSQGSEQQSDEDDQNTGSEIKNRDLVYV
Protocol: (§1) For compound k-1:B-1 (racemate), GA-002A, GA-002B, GA-005A and GA-005B, inhibitory activity evaluation (calculation of IC50) was performed on LATS1 and LATS2 (manufactured by Carna Biosciences). The activity was measured using the Kinase Assay method described below. The compounds were added such that the test concentration of k-1:B-1 (racemate), GA-002A, GA-002B, GA-005A and GA-005B was in 8 steps (10 μM, 1 μM, 100 nM, […], 10 nM, 3 nM, 1 nM, 0.3 nM) from the final concentration of 10 μM to 0.3 nM.
(§2) As the analysis method of the data, the mean signal of the control well containing reaction components other than the evaluation compound was set to 0% inhibition, the mean signal without enzyme addition was set to 100% inhibition, and the inhibition rate was calculated from the mean signal of 2 wells of each test substance test. IC50 value was calculated using EXSUS (version 7.1.6, manufactured by CAC EXICARE Corporation).
(§3) 2 μL of a compound of the present invention solution at 2.5-fold concentration, 1 μL of substrate at 5-fold concentration (SGKtide: NH2—CKKRNRRLSVA-COOH, manufactured by SignalChem), ATP (manufactured by Sigma-Aldrich), MgCl2 (manufactured by FUJIFILM Wako Pure Chemical Corporation) solution (final concentration 10 μM, 400 μM or 5 mM), and 2 μL of kinase solution at 2.5-fold concentration (final concentration of LATS1 or LATS2 5 μg/mL), each prepared with assay buffer (20 mM HEPES, 0.01% Triton X-100, 2 mM DTT, pH 7.5), were mixed in the wells of a polypropylene 384-well plate (manufactured by Greiner Bio-One, #784900) and reacted at room temperature for 5 hr. Successively, 5 μL detection solution (Fluorospark (registered trade mark)Kinase/ADP Multi-Assay Kit; manufactured by FUJIFILM Wako Pure Chemical Corporation) was added, and the mixture was reacted at room temperature 30 min. Successively, 5 μL of a reaction quenching liquid (Fluorospark (registered trade mark) Kinase/ADP Multi-Assay Kit; manufactured by FUJIFILM Wako Pure Chemical Corporation) was added to discontinue the reaction. Thereafter, the ADP concentration of the reaction solution was quantified by EnSpire (manufactured by PerkinElmer) to detect the kinase reaction.

[2] = molecular target: T2, LATS2 (Homo sapiens, UniProt Q9NRM7); experiment: as above; format: biochemical
T2 construct: purchased Carna Biosciences
T2 sequence (Q9NRM7 553-1088 limits assumed): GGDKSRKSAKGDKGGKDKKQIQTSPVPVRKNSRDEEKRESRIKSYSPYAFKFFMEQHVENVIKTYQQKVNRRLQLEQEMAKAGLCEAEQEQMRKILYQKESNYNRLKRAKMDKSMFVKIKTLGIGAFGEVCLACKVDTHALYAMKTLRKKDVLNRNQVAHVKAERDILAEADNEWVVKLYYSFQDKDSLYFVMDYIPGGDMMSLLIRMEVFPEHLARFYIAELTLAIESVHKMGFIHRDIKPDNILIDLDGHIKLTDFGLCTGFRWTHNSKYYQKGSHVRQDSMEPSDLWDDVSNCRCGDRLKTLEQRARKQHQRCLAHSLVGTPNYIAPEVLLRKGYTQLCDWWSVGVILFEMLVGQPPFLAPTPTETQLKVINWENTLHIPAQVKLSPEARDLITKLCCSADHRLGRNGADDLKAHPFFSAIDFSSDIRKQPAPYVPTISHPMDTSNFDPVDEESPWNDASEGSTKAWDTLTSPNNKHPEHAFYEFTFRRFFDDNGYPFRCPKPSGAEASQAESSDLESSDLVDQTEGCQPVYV
Protocol: as §1, §2, §3

[3] = test system: YAP (phospho-S127 and total); experiment: YAP phosphorylation inhibitory action in SKOV3 cells (HTRF, YAP-total kit / YAP phospho-S127 kit); format: cell-based, human; details: 10 μM, 1 hr, Non-treatment as 100%
Protocol: Human ovarian cancer cell line SKOV3 (manufactured by DS Pharma Biomedical Co., Ltd) was precultured (single layer culture) in a 15% FBS-containing McCoy's 5a medium (manufactured by Sigma Ltd. Aldrich). The above-mentioned cells in the logarithmic growth phase were washed with PBS, a 0.25% (w/v) trypsin-1 mmol/L ethylenediaminetetraacetic acid (EDTA) solution (manufactured by Fujifilm Wako Pure Chemical Corporation) was added, and adherent cells were detached by incubating at 37° C. for 3 min. The above-mentioned medium was added and the mixture was centrifuged and resuspended in the same medium.
According to the method of patent document (WO 2014/017513), a composition of 10% FBS-containing DMEM medium (Phenol-red free, manufactured by FUJIFILM Wako Pure Chemical Corporation) containing 0.015% (w/v) deacylated gellan gum (KELCOGEL CG-LA, manufactured by SANSHO Co., Ltd.) was prepared using FCeM-series Preparation Kit (manufactured by FUJIFILM Wako Pure Chemical Corporation). Then, various cells prepared above were suspended in the above-mentioned medium composition (3D conditions) added with deacylated gellan gum or a medium without the addition (2D conditions), and seeded on a 50 μL/well (manufactured by Corning Incorporated, 96 well flat bottom plate, #3585, 2D conditions) or 25 μL/well (manufactured by Corning Incorporated, 96 well low adhesion flat bottom plate, #3474) at 100000 cells/well. The plate was allowed to stand at 37° C. in a 5% CO2 incubator, and the compound of the present invention diluted with the medium at 2 or 6 times the final concentration, DMSO, or the medium alone was added to the plate 3 hr after the seeding at 50 μL/well (2D conditions) or 5 μL/well (3D conditions) to make the final concentration of each compound 10 μM. After culture at 37° C. in a 5% CO2 incubator for 1 hr, the supernatant was aspirated, supplemented Lysis buffer (1-fold concentration, manufactured by Cisbio, YAP-total kit or YAP phospho-S127 kit) (50 μL) was added under 2D conditions, and supplemented Lysys buffer (4-fold concentration) (10 μL) was added to the culture supernatant under 3D conditions, and the mixture was stirred by a plate shaker for 30 min. Thereafter, the plate was centrifuged, 16 μL of the supernatant was transferred to a 384-well white plate (Corning, #4512), and each antibody solution (pYAP d2 antibody or Total-YAP d2 antibody, and pYAP Cryptate antibody or Total-YAP Cryptate antibody) included in the kit was added at 4 μL/well in total, and the mixture was allowed to stand at room temperature overnight. As a blank control, pYAP Cryptate antibody or Total-YAP Cryptate antibody alone was added to cells free of stimulation with compound and the mixture was treated in the same manner (Non-treatment). The next day, the wavelengths at 665 nm and 615 nm were measured in the HTRF mode of EnVision (manufactured by PerkinElmer).
The obtained signal was calculated as follows. Ratio=signal (665 nm)/signal (615 nm)×10000, ΔR=Signal(Ratio)−Background fluorescence, and the relative value with respect to ΔR of the compound non-addition group (Non-treatment) as 100% was calculated, and the phosphorylated YAP amount or total YAP amount by each compound was evaluated.

[4] = Kinase Assay method, 8 steps 10 μM to 0.3 nM

- inhibition at 0.1 µM ([1]; 100 nM, read-out: LARS1 inhibitory rate (%)): 96%
- inhibition at 1 µM ([1]; 1000 nM, read-out: LARS1 inhibitory rate (%)): 97%
- IC50 [1, 4]: 4.79 nM
- inhibition at 0.1 µM ([2]; 100 nM, read-out: LARS2 inhibitory rate (%)): 99%
- inhibition at 1 µM ([2]; 1000 nM, read-out: LARS2 inhibitory rate (%)): 100%
- IC50 [2, 4]: 7.39 nM
Compound: CC/C(=N\NC(=O)[C@@H](C)Nc1cccc(O)c1)c1ccc(O)c(C)c1O [GA-005A]
- phosphorylated YAP (%) ([3]; 2D condition): 10%
- total YAP (%) ([3]; 2D condition): 91%
- phosphorylated YAP (%) ([3]; 3D condition): 10%
- total YAP (%) ([3]; 3D condition): 107%
